# From patent publication US4410516A, “1-N(αHydroxy-ω-aminoalkanoyl) derivatives of 5,3',4'-trideoxy- or 5,3', 4'-trideoxy-6'-N- methyl- or 5, 3', 4',6"-tetradeoxykannamyci B and production thereof” (Zaidan Hojin Biseibutsu Kagaku Kenkyu Kai, priority 1981, dated 1983)
# Like-named read-outs stand apart in the source and are kept apart here.
# Columns and labels:
# Format in all cases: cell-based
# [1] = test system: Pseudomonas aeruginosa B-13; experiment: Minimum inhibitory concentration, serial dilution on nutrient agar; conditions: B13, 37° C., 18 hours incubation
# Providencia 2991 = experiment: as above; conditions: 37° C., 18 hours incubation
# [2] = test system: Pseudomonas aeruginosa H9; experiment: as above; conditions: H9, 18 h
# [3] = test system: Pseudomonas aeruginosa No. 12; experiment: as above; conditions: NO.12, 18 h
# Serratia 4 = experiment: as above; conditions: 37° C., 18 hours incubation
# [4] = test system: Pseudomonas aeruginosa GN315; experiment: as above; conditions: GN315, 18 h
# Escherichia coli K-12 = experiment: as above
# [5] = test system: Pseudomonas aeruginosa 99; experiment: as above
# [6] = test system: Escherichia coli K-12 R 388; experiment: as above; conditions: K12R388, 18 h
# [7] = test system: Pseudomonas aeruginosa H11; experiment: as above
# [8] = test system: Pseudomonas aeruginosa K-Ps102; experiment: as above; conditions: KPS102, 18 h
# Proteus vulgaris OX19 = experiment: as above; conditions: 37° C., 18 hours incubation
# [9] = test system: Mycobacterium smegmatis ATCC 607; experiment: as above; conditions: Mycolicibacterium smegmatis, ATCC607; nutrient agar, 37° C., 18 hours incubation; read-out: MIC
# Proteus rettgeri GN311 = experiment: as above; conditions: Providencia rettgeri, 37° C., 18 hours incubation
# Escherichia coli K-12 R5 = experiment: as above; conditions: K12R5, 18 h
# [10] = test system: Pseudomonas aeruginosa 21-75; experiment: as above; conditions: 2175, 37° C., 18 hours incubation
# Escherichia coli NIHJ = experiment: as above
# [11] = test system: Staphylococcus aureus AP01; experiment: as above; conditions: 37° C., 18 hours incubation
# Escherichia coli JR255 = experiment: as above
# Bacillus anthracis = experiment: microbe, parasite or virus in culture; conditions: 18 h
# [12] = test system: Pseudomonas maltophilia GN907; experiment: Minimum inhibitory concentration, serial dilution on nutrient agar; conditions: Stenotrophomonas maltophilia, 37° C., 18 hours incubation
# [13] = test system: Staphylococcus epidermidis 109; experiment: as above; conditions: Staphylococcus epidermidis, 109; nutrient agar, 37° C., 18 hours incubation; read-out: MIC
# [14] = test system: Salmonella enteritidis 1891; experiment: as above; conditions: Salmonella enterica
# [15] = test system: Pseudomonas aeruginosa A3; experiment: as above; conditions: 37° C., 18 hours incubation
# [16] = test system: Escherichia coli K-12 ML 1630; experiment: as above; conditions: K12ML1630, 37° C., 18 hours incubation
# Source text: (§1) The minimum inhibitory concentration (mcg/ml) of 1-N-[(S)-4-amino-2-hydroxybutyryl]-5,3',4'-trideoxykanamycin B (abbreviated as AHB-trideoxyKMB), 1-N-[(RS)-3-amino-2-hydroxypropionyl]-5,3',4'-trideoxykanamycin B (abbreviated as AHP-trideoxy-KMB) and 1-N-[(S)-4-amino-2-hydroxybutyryl]-5,3',4',6"-tetradeoxykanamycin B (abbreviated as AHB-tetradeoxyKMB) of the formula (II) according to this invention as well as of the new compound 5,3',4',6"-tetradeoxykanamycin B (abbreviated as tetradeoxyKMB) of the formula (III) according to this invention against various microorganisms were determined according to serial dilution method on a nutrient agar medium at 37° C., the estimation being made after 18 hours incubation. For comparison purpose, the minimum inhibitory concentrations of habekacin were also determined in the same manner as stated above.
# (§2) The minimum inhibitory concentrations (mcg/ml) of 1-N-[(S)-4-amino-2-hydroxybutyryl]-5,3',4'-trideoxy-6'-N-methylkanamycin B (abbreviated as AHB-trideoxyMKMB), 1-N-[(RS)-3-amino-2-hydroxypropionyl]-5,3',4'-trideoxy-6'-N-methylkanamycin B (abbreviated as AHP-trideoxyMKMB) and 1-N-[(S)-5-amino-2-hydroxyvaleryl]-5,3',4'-trideoxy-6'-N-methylkanamycin B (abbreviated as AHV-trideoxyMKMB) of the formula (IV) according to this invention as well as of the new compound 5,3',4'-trideoxy-6'-N-methylkanamycin B (abbreviated as trideoxyMKMB) of the formula (V) according to this invention against various microorganisms were determined according to serial dilution method on a nutrient agar medium at 37° C., the estimation being made after 18 hours incubation. For comparison purpose, the minimum inhibitory concentrations of 1-N-[(S)-4-amino-2-hydroxybutyryl]-3',4'-dideoxykanamycin B (ie. habekacin) were also determined in the same manner as stated above.
# Shigella sonnei JS11746 = experiment: as above; conditions: 37° C., 18 hours incubation
# Source text: as §1, §2
# [17] = test system: Micrococcus flavus FDA 16; experiment: as above; conditions: FDA16, 18 h
# [18] = test system: Bacillus cereus ATCC 10702; experiment: as above
# [19] = test system: Bacillus subtilis NRRL B-558; experiment: as above; conditions: NRRLB558, 37° C., 18 hours incubation
# Escherichia coli W677 = experiment: as above; conditions: W677, 18 h
# [20] = test system: Pseudomonas aeruginosa PST1; experiment: as above; conditions: PST1, nutrient agar, 37° C., 18 hours incubation, read-out: MIC
# [21] = Pseudomonas aeruginosa, 99, 18 h
# [22] = H11, nutrient agar, 37° C., 18 hours incubation, read-out: MIC
# [23] = ATCC10702, nutrient agar, 37° C., 18 hours incubation, read-out: MIC
# [24] = nutrient agar, 37° C., 18 hours incubation, read-out: MIC
Compound,MIC [1],MIC (Providencia 2991),MIC [2],MIC [3],MIC (Serratia 4),MIC [4],MIC [6],MIC [8],MIC (Proteus vulgaris OX19),MIC [9],MIC (Proteus rettgeri GN311),MIC (Escherichia coli K-12 R5),MIC [10],MIC [11],MIC (Bacillus anthracis),MIC [12],MIC [13],MIC [16],MIC (Shigella sonnei JS11746),MIC [17],also measured
"CNC[C@@H]1CC[C@@H](N)[C@@H](O[C@H]2C[C@@H](O[C@H]3O[C@H](CO)[C@@H](O)[C@H](N)[C@H]3O)[C@H](NC(=O)[C@@H](O)CCCN)C[C@@H]2N)O1 [AHV-trideoxyMKMB, 1-N-[(S)-5-amino-2-hydroxyvaleryl]-5,3',4'-trideoxy-6'-N-methylkanamycin B]",12.5 µg/mL,25 µg/mL,3.13 µg/mL,3.13 µg/mL,12.5 µg/mL,3.13 µg/mL,1.56 µg/mL,1.56 µg/mL,0.78 µg/mL,0.39 µg/mL,100 µg/mL,6.25 µg/mL,12.5 µg/mL,0.39 µg/mL,< 0.2 µg/mL,> 100 µg/mL,< 0.2 µg/mL,3.13 µg/mL,6.25 µg/mL,3.13 µg/mL,"MIC (Escherichia coli K-12; K12, 18 h): 1.56 µg/mL; MIC [5, 21]: 6.25 µg/mL; MIC ([7]; H11, 18 h): 6.25 µg/mL; MIC (Escherichia coli NIHJ; 18 h): 1.56 µg/mL; MIC (Escherichia coli JR255; JR255, 18 h): 1.56 µg/mL; MIC ([14]; 18 h): 3.13 µg/mL; MIC [15]: 0.39 µg/mL; MIC ([18]; ATCC10702, 18 h): 1.56 µg/mL; MIC [19]: < 0.2 µg/mL; MIC (Escherichia coli W677): 1.56 µg/mL; MIC [20]: 12.5 µg/mL"
"CNC[C@@H]1CC[C@@H](N)[C@@H](O[C@H]2C[C@@H](O[C@H]3O[C@H](CO)[C@@H](O)[C@H](N)[C@H]3O)[C@H](NC(=O)C(O)CN)C[C@@H]2N)O1 (stereo partly drawn) [AHP-trideoxyMKMB, 1-N-[(RS)-3-amino-2-hydroxypropionyl]-5,3',4'-trideoxy-6'-N-methylkanamycin B]",25 µg/mL,50 µg/mL,3.13 µg/mL,3.13 µg/mL,12.5 µg/mL,3.13 µg/mL,1.56 µg/mL,3.13 µg/mL,0.78 µg/mL,0.39 µg/mL,25 µg/mL,12.5 µg/mL,25 µg/mL,< 0.2 µg/mL,< 0.2 µg/mL,> 100 µg/mL,< 0.2 µg/mL,3.13 µg/mL,6.25 µg/mL,3.13 µg/mL,"MIC (Escherichia coli K-12; K12, 18 h): 3.13 µg/mL; MIC ([5]; Pseudomonas aeruginosa, 99, nutrient agar, 37° C., 18 hours incubation, read-out: MIC): 12.5 µg/mL; MIC [7, 22]: 12.5 µg/mL; MIC (Escherichia coli NIHJ; 18 h): 3.13 µg/mL; MIC (Escherichia coli JR255; JR255, 18 h): 3.13 µg/mL; MIC ([14]; 18 h): 6.25 µg/mL; MIC [15]: 0.78 µg/mL; MIC [18, 23]: 1.56 µg/mL; MIC [19]: 0.39 µg/mL; MIC (Escherichia coli W677): 3.13 µg/mL; MIC [20]: 25 µg/mL"
"CNC[C@@H]1CC[C@@H](N)[C@@H](O[C@H]2C[C@@H](O[C@H]3O[C@H](CO)[C@@H](O)[C@H](N)[C@H]3O)[C@H](NC(=O)[C@@H](O)CCN)C[C@@H]2N)O1 [AHB-trideoxyMKMB, 1-N-[(S)-4-amino-2-hydroxybutyryl]-5,3',4'-trideoxy-6'-N-methylkanamycin B]",12.5 µg/mL,12.5 µg/mL,1.56 µg/mL,1.56 µg/mL,6.25 µg/mL,3.13 µg/mL,0.39 µg/mL,1.56 µg/mL,< 0.2 µg/mL,< 0.2 µg/mL,50 µg/mL,3.13 µg/mL,12.5 µg/mL,0.39 µg/mL,< 0.2 µg/mL,> 100 µg/mL,< 0.2 µg/mL,1.56 µg/mL,3.13 µg/mL,1.56 µg/mL,"MIC (Escherichia coli K-12; K12, nutrient agar, 37° C., 18 hours incubation, read-out: MIC): 0.78 µg/mL; MIC [5, 21]: 3.13 µg/mL; MIC [7, 22]: 12.5 µg/mL; MIC (Escherichia coli NIHJ; [24]): 0.78 µg/mL; MIC (Escherichia coli JR255; JR255, nutrient agar, 37° C., 18 hours incubation, read-out: MIC): 0.78 µg/mL; MIC [14, 24]: 0.78 µg/mL; MIC [18, 23]: 0.39 µg/mL; MIC [19]: < 0.2 µg/mL; MIC (Escherichia coli W677): 1.56 µg/mL; MIC [20]: 12.5 µg/mL"
